Measured values reported in article PMC11845477, “Exploring the principles behind antibiotics with limited resistance” (Nature Communications, 2025).
Like-named read-outs stand apart in the source and are kept apart here. Where a SMILES comes first, the peptide text is derived from it. Bridges are numbered along the chain shown (N, C = ends). [ ]: non-standard residue; d: D form. The star is where a group is joined. X2 = CC[C@H](C)CCCCC(=O)*; Dab = NCC[C@H](N)C(=O)O

Legend:
[1] = tested on: T1, Pseudomonas aeruginosa ATCC BAA 3107; experiment: microbe, parasite or virus in culture; design: CLSI broth microdilution MIC; OD600 < 0.05 counted as complete growth inhibition; conditions: Pseudomonas aeruginosa, BAA3107, 18 h; read-out: MIC of ancestor
T1 construct: ATCC BAA-3107
Description: (§1) A final concentration of 5 × 10^5 bacterial cells per mL were inoculated into each well containing 60 µL MHB medium. Bacterial cultures were incubated at 37 °C with continuous shaking (Infors shaker, 900 rpm with 3 mm throw) for 18 hours (2 replicates from each). Cell growth was monitored by measuring the optical density (OD600 values, using Biotek Synergy microplate reader). MIC was defined as the antibiotic concentration of complete growth inhibition (i.e., OD600 < 0.05). Relative MIC was calculated as follows:1 relativeMIC=MICevolved/MICancestor This study focused on multiple bacterial strains, as follows. For the FoR and ALE experiments, 2 strains per species were chosen: E. coli ATCC 25922, K. pneumoniae ATCC 10031, A. baumannii ATCC 17978, and P. aeruginosa ATCC BAA-3107 as sensitive (SEN) strains, and E. coli NCTC13846, K. pneumoniae ATCC 700603, A. baumannii ATCC BAA-1605 and P. aeruginosa LESB58 as multi-drug resistant (MDR) strains. Functional metagenomic screens were performed with E. coli ATCC 25922 and K. pneumoniae ATCC 10031 strains. To determine the dose-kill properties of the different antibiotics, an E. coli strain (ATCC 25922) expressing a yellow fluorescent protein (pZS2R, YFP, CHL^R) and a red fluorescent protein (pZS2R, mCherry, CHL^R) was used.

[2] = tested on: T2, P. aeruginosa ATCC BAA-3107; experiment: microbe, parasite or virus in culture; design: Serial broth microdilution MIC (CLSI), OD600 below 0.05, 384-well plates, MHB medium; conditions: Pseudomonas aeruginosa, ATCCBAA3107, 18 h; ancestor strain before evolution
T2 construct: ATCC BAA-3107
Description: as §1

[3] = tested on: A. baumannii ATCC 17978 (SEN) and A. baumannii ATCC BAA-1605 (MDR); design: method as in PMID 39805953; conditions: cited from earlier work
[4] = tested on: Escherichia coli, Klebsiella pneumoniae, Acinetobacter baumannii, and Pseudomonas aeruginosa; conditions: all species; cited from earlier work
[5] = tested on: E. coli ATCC 25922 (SEN) and E. coli NCTC13846 (MDR); conditions: E. coli sensitive strain, after 60 days of evolution; cited from earlier work
Excerpt: (§2) Using the same set of bacterial strains, we initiated adaptive laboratory evolution with the aim to maximize the level of antibiotic resistance in the populations achieved during a longer, but fixed time period. As expected, resistance levels were generally much higher than those observed in FoR assay. […] For instance, after 60 days of evolution, resistance levels increased by a maximum of fourfold in A. baumannii and in the E. coli sensitive strain e ...

[6] = tested on: A. baumannii ATCC 17978 (SEN) and A. baumannii ATCC BAA-1605 (MDR); conditions: after 60 days of evolution; cited from earlier work
Excerpt: as §2

Nc1nc(-n2cc(C(=O)O)c(=O)c3cc(F)c(N4CC(O)C4)c(Cl)c32)c(F)cc1F [Delafloxacin]
MIC [1]: 0.0156 µg/mL
MIC [2]: 0.0156 µg/mL

CC[C@H](C)CCCCC(=O)N[C@@H](CCN)C(=O)N[C@H](C(=O)N[C@@H](CCN)C(=O)N[C@H]1CCNC(=O)[C@H]([C@@H](C)O)NC(=O)[C@H](CCN)NC(=O)[C@H](CCN)NC(=O)[C@H](CC(C)C)NC(=O)[C@@H](Cc2ccccc2)NC(=O)[C@H](CCN)NC1=O)[C@@H](C)O [Polymyxin B] (X2-[Dab]T[Dab][Dab][Dab][dF]L[Dab][Dab]T; lactam 4-C (inferred); N-terminus assumed)
resistance level (relative MIC) after FoR assay ([3]; A. baumannii multidrug-resistant (MDR) strain): more than 128 fold
resistance level (relative MIC) after FoR assay ([3]; A. baumannii sensitive strain): no resistant mutants emerged

CC(C)c1ccc(Cn2ccc3c4c(N)nc(NC5CC5)nc4ccc32)cc1 [SCH79797]
average increment in resistance level (relative MIC) after FoR assay [4]: less than fourfold
increase in resistance level after adaptive laboratory evolution [5]: fourfold
increase in resistance level after adaptive laboratory evolution [6]: fourfold
